Results as given in patent publication US20050112123A1, “Methods of treating proteinuria” (priority 2003, published 2005).
Entries after “also recorded” stand apart in the source; their conditions may differ.

Tests used:
podocytes [1] = assay: Hoechst 33342 staining for apoptosis and binucleated cells; type: cell-based; conditions: at the concentrations of ATRA used in these experiments; statistically insignificant
Protocol: To ensure that the anti-proliferative effects of ATRA were not confounded by podocyte apoptosis in podocytes or bi-nucleated cells, Hoechst 33342 (Molecular Probes, Eugene, Oreg., USA) staining was performed as previously reported. Hiromura et al. (1999) J Clin Invest 103:597-604. Careful morphological analysis was performed and the percentage of apoptotic cells was quantitated in adherent and non-adherent cells using inverted fluorescent microscopy as previously described. Hiromura et al. (1999) supra; and Mooney et al. (1997) J Immunol 159:3949-3960.

normal mice = assay: Pilot study of adverse side effects in normal mice; type: in vivo, mouse; conditions: 16 mg/kg i.p. for 7 days
Protocol: Pilot studies were performed to determine if giving ATRA 16 mg/kg i.p. for 7 days caused adverse side effects in normal mice. […] To determine the effect of ATRA on podocytes in vivo, mice with experimental glomerular disease were given ATRA intraperitoneally (i.p.) on two consecutive days. […] Renal function was assessed by measuring proteinuria and BUN.

podocytes [2] = assay: Hoecht's Assay of apoptosis for dose selection; type: cell-based, mouse; conditions: 25 mM ATRA
Protocol: The dose of 25 mMol/ml ATRA was selected after exposing cells to varying mMol doses of ATRA (10, 25, 50, 75, 100) and then measuring apoptosis with the Hoecht's Assay according to the manufacturer's directions. Apoptosis was not increased at 25 mM.

[3] = tested on: C57BL6 mice with anti-glomerular antibody-mediated podocyte injury; assay: Anti-glomerular antibody model of podocyte injury: immunostaining of kidney tissue; type: in vivo, mouse; conditions: for PCNA staining (podocyte proliferation) vs control: FIG. 4; for WT-1 staining (podocyte number) vs control: P<0.001, FIG. 5
Protocol: Immunofluorescent staining of kidney tissue. Mouse kidney biopsies were fixed in methyl Carnoy's (MC) solution or snap frozen in liquid nitrogen for analysis of proliferating cell nuclear antigen (PCNA), WT-1, podocin, synaptopodin, podocalyxin, and nephrin in vivo following ATRA treatment in anti-glomerular disease. Sections (4 μm) were cut from paraffin embedded MC fixed tissue or from OCT embedded frozen tissue. Frozen sections were then fixed in 100% methanol at −20° C. Mouse monoclonal antibody to PCNA (Beckman Coulter Miami, Fla., USA) or rabbit polyclonal antibody to WT-1 were incubated on MC-fixed tissue, and rabbit polyclonal antibodies to podocin, nephrin, podocalyxin, and synaptopodin were incubated on frozen sections. Primary mouse antibody to PCNA was incubated with a peroxidase conjugated rat anti-mouse IgM antibody (Zymed Laboratories, Inc. So. San Francisco, Calif., USA); all other primary antibodies were incubated with biotinylayted goat anti-rabbit antibody followed by either avidin D conjugated horseradish peroxidase (WT-1) or avidin conjugated AlexaFluor. PCNA and WT-1 stains were visualized with diaminobenzidine (Sigma Chemicals, St. Louis, Mo., USA).
An antibody-mediated model of podocyte injury was induced in C57BL6 mice with a sheep anti-glomerular antibody (two doses of 0.3 ml/20 gm body weight) over two consecutive days. Kim et al. (1999) Kidney Int 55:2349-2361; and Ophascharoensuk et al. (1998) Kidney Int 54:416-425. After the induction of the anti-glomerular model, but before the development of proteinuria, mice were then divided into an experimental group that received daily injections of ATRA 16.6 mg/kg (IP), and a control group that received vehicle (corn oil). […] The podocyte specific proteins WT-1, nephrin, podocin, synaptopodin, were measured by immunostaining at each time point, as was the proliferation marker, PCNA (see above). Using proliferating cell nuclear antigen (PCNA) as a marker of proliferation and WT-1 as a marker for podocytes, the level of podocyte proliferation was determined.

rat podocytes = assay: Immunofluorescent staining of cultured rat podocytes (nephrin, podocin)
[4] = tested on: Tg-26 HIV transgenic heterozygous mice; assay: Tg-26 HIV transgenic mice (HIV-associated nephropathy) in vivo
[5] = tested on: heat sensitive mouse podocytes; assay: Immunofluorescent staining of cultured HSMP (nephrin, podocin); conditions: 200 μM ATRA
transgenic podocytes = assay: Immunostaining of HIV transgenic podocytes for podocyte and cell cycle proteins
[6] = nephritic mice, days 5 and 14 after disease induction, vs control nephritic mice given vehicle
[7] = nephritic mice, vs control nephritic animals given vehicle
[8] = ATRA treated Tg mice (5 animals)
[9] = transgenic podocytes, day 7 of growth restriction

CC1=C(/C=C/C(C)=C/C=C/C(C)=C/C(=O)O)C(C)(C)CCC1 [ATRA, all-trans retinoic acid]
cells undergoing apoptosis (Hoechst staining) (podocytes [1]): < 4 % of total cells
adverse side effects (normal mice): no weight loss, ruffled fur, withdrawal or diarrhea
apoptosis (Hoecht's Assay) (podocytes [2]): not increased
number of cells that stained positive for PCNA vs normal ([3]; experimental (ATRA treated) mice, day 5, P<0.05 vs normal, FIG. 4 legend): increased
PCNA staining (podocyte proliferation) vs control ([3]; nephritic mice, day 7): did not have a statistically significant effect
WT-1 staining (podocyte number) vs control ([3]; nephritic mice, day 7): prevented the decrease in WT-1 staining; also recorded: prevented the decrease in podocyte number
PCNA staining (podocyte proliferation) vs control ([3]; nephritic mice, day 14): significantly reduced podocyte proliferation; also recorded: significantly reduced PCNA immunostaining
WT-1 staining (podocyte number) vs control ([3]; nephritic mice, day 14): prevented the decrease in WT-1 staining; also recorded: prevented the decrease in podocyte number
nephrin immunostaining in kidney [3, 6]: prevented the decrease in immunostaining
podocin immunostaining in kidney [3, 6]: prevented the decrease in immunostaining
synaptopodin immunostaining in kidney [3, 6]: prevented the decrease in immunostaining
CD2AP immunostaining in kidney [3, 7]: not different from control nephritic animals
p35 immunostaining in kidney [3, 7]: not different from control nephritic animals
podocin immunostaining compared to control (rat podocytes; cultured rat podocytes, OptM ATRA): increased immunostaining
nephrin immunostaining compared to control cells exposed to vehicle (rat podocytes; undifferentiated and proliferating rat podocytes, 10 μM ATRA): nephrin immunostaining increased
collapsed glomeruli [4, 8]: no collapsed glomeruli
glomeruli with 0-25% sclerosis [4, 8]: 4.8%
glomeruli with 25-50 sclerosis [4, 8]: 1.2%
glomeruli with 50-75% or 75-100% sclerosis [4, 8]: No glomeruli were seen
glomeruli with no sclerosis ([4]; ATRA treated Tg mice (5 animals), 50 glomeruli per tissue sample): 94%
segmental sclerosis vs carrier treated transgenic animals ([4]; Tg mice, 4 months of life): reduced the sclerosis by a statistically significant amount
serum BUN ([4]; the different groups): no significant difference
proteinuria vs carrier treated transgenic animals (Tg C) ([4]; transgenic mice, ATRA 16 mg/kg intraperitoneal three times a week): tended to have less proteinuria
significance of difference in proteinuria vs carrier treated animals ([4]; transgenic mice, all other time points): not significant
significance of difference in proteinuria vs carrier treated animals ([4]; transgenic mice, at 80 days): statistically significant
interstitial disease score (tubular dilatation) ([4]; two ATRA treated Tg animals): no tubular dilatation
podocin immunostaining compared to control ([5]; HSMP): increased immunostaining
nephrin immunostaining compared to control cells exposed to vehicle ([5]; heat sensitive mouse podocytes): nephrin immunostaining increased
cyclin A staining vs standard media (transgenic podocytes; ATRA exposed group): decreased intensity of staining
cell number vs standard media (transgenic podocytes; ATRA group, cyclin A staining): grossly decreased
WT-1 staining vs standard media (transgenic podocytes; [9]): increased staining intensity
cd2ap staining vs transgenic podocytes in standard media (transgenic podocytes; [9]): increased intensity of staining
cell size and cell number vs standard media (transgenic podocytes; [9]): appeared larger and decreased in number; also recorded: increased cell size and decreased cell number
CD2AP staining vs standard media group (transgenic podocytes; transgenic podocytes, day 14 of growth restriction): increased staining intensity
decrease in cell number (transgenic podocytes; transgenic podocytes, day 14 time point): not as prominent
